Source: patent US12077503B2, “Substituted cyclic amides and their use as herbicides” (FMC CORPORATION, priority 2015, dated 2024)

What was measured:
Format in all cases: in vivo
[1] = test system: ryegrass, Italian (Italian ryegrass, Lolium multiflorum); assay: Test A preemergence; conditions: Lolium multiflorum, pre-emergence, 240 h, 0 to 100 scale where 0 is no effect and 100 is complete control, read-out: Ryegrass, Italian plant response rating
In short: (§1)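 Compounds were formulated in a non-phytotoxic solvent mixture with surfactant and applied as a preemergence directed soil spray after seeding, or sprayed postemergence over plants 2 to 10 cm tall at the one- to two-leaf stage. Evaluation after about 10 d compared treated with untreated controls, using a scale from 0 (no effect) to 100 (complete control).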

[2] = test system: giant foxtail (Setaria faberii); assay: Test A preemergence; conditions: Setaria faberi, pre-emergence, 240 h, 0 to 100 scale where 0 is no effect and 100 is complete control, read-out: Foxtail, Giant plant response rating
In short: as §1

[3] = test system: pigweed (Amaranthus retroflexus); assay: Test A preemergence; conditions: Amaranthus retroflexus, pre-emergence, 240 h, 0 to 100 scale where 0 is no effect and 100 is complete control, read-out: Pigweed plant response rating
[4] = test system: ragweed (common ragweed, Ambrosia elatior); assay: Test A preemergence; conditions: Ambrosia artemisiifolia, pre-emergence, 240 h, 0 to 100 scale where 0 is no effect and 100 is complete control, read-out: Ragweed plant response rating
In short: as §1

[5] = test system: Kochia (Kochia scoparia); assay: Test A preemergence; conditions: Bassia scoparia, pre-emergence, 240 h, 0 to 100 scale where 0 is no effect and 100 is complete control, read-out: Kochia plant response rating
In short: as §1

[6] = test system: barnyardgrass (Echinochloa crus-galli); assay: Test A preemergence; conditions: Echinochloa crus-galli, pre-emergence, 240 h, 0 to 100 scale where 0 is no effect and 100 is complete control, read-out: Barnyardgrass plant response rating
In short: as §1

[7] = test system: blackgrass (Alopecurus myosuroides); assay: Test A postemergence; conditions: Alopecurus myosuroides, post-emergence, 240 h, Postemergence, read-out: Blackgrass plant response rating (0 to 100 scale)
In short: as §1

[8] = test system: ryegrass, Italian (Italian ryegrass, Lolium multiflorum); assay: Test A postemergence; conditions: Lolium multiflorum, post-emergence, 240 h, Postemergence, read-out: Ryegrass, Italian plant response rating (0 to 100 scale)
In short: as §1

[9] = test system: Galium (catchweed bedstraw, Galium aparine); assay: Test A postemergence; conditions: Galium, post-emergence, 240 h, Postemergence, read-out: Galium plant response rating (0 to 100 scale)
In short: as §1

[10] = test system: giant foxtail (Setaria faberii); assay: Test A postemergence; conditions: Setaria faberi, post-emergence, 240 h, Postemergence, read-out: Foxtail, Giant plant response rating (0 to 100 scale)
In short: as §1

[11] = test system: pigweed (Amaranthus retroflexus); assay: Test A postemergence; conditions: Amaranthus retroflexus, post-emergence, 240 h, Postemergence, read-out: Pigweed plant response rating (0 to 100 scale)
In short: as §1

[12] = test system: ragweed (common ragweed, Ambrosia elatior); assay: Test A postemergence; conditions: Ambrosia artemisiifolia, post-emergence, 240 h, Postemergence, read-out: Ragweed plant response rating (0 to 100 scale)
In short: as §1

[13] = test system: Kochia (Kochia scoparia); assay: Test A postemergence; conditions: Bassia scoparia, post-emergence, 240 h, Postemergence, read-out: Kochia plant response rating (0 to 100 scale)
In short: as §1

[14] = test system: wheat (Triticum aestivum); assay: Test A postemergence; conditions: Triticum aestivum, post-emergence, 240 h, Postemergence, read-out: Wheat plant response rating (0 to 100 scale)
In short: as §1

[15] = test system: corn (Zea mays); assay: Test A postemergence; conditions: Zea mays, post-emergence, 240 h, Postemergence, read-out: Corn plant response rating (0 to 100 scale)
In short: as §1

[16] = test system: barnyardgrass (Echinochloa crus-galli); assay: Test A postemergence; conditions: Echinochloa crus-galli, post-emergence, 240 h, Postemergence
In short: as §1

[17] = test system: ducksalad (Heteranthera limosa); assay: Test B flooded paddy test; conditions: Heteranthera limosa, 250 g ai/ha, Flood; 0 to 100 scale where 0 is no effect and 100 is complete control; read-out: Ducksalad plant response rating
In short: (§2)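 Flooding to 3 cm over soil accompanied treatment, which consisted of adding compound to the standing water around 2-leaf plants; depth was then maintained. Visual assessment versus controls followed at 13 to 15 d (scale 0–100, 0 meaning no effect).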

[18] = test system: rice (Oryra sativa); assay: Test B flooded paddy test; conditions: Oryza sativa, 250 g ai/ha, Flood; 0 to 100 scale where 0 is no effect and 100 is complete control; read-out: Rice plant response rating
In short: as §2

[19] = test system: sedge, umbrella (small-flower umbrella sedge, Cyperus difformis); assay: Test B flooded paddy test; conditions: Cyperus difformis, 250 g ai/ha, Flood; 0 to 100 scale where 0 is no effect and 100 is complete control; read-out: Sedge, Umbrella plant response rating
In short: as §2

[20] = test system: barnyardgrass (Echinochloa crus-galli); assay: Test B flooded paddy test; conditions: Echinochloa crus-galli, 250 g ai/ha, Flood; 0 to 100 scale where 0 is no effect and 100 is complete control; read-out: Barnyardgrass plant response rating
In short: as §2

[21] = 125 g ai/ha, preemergence, visual injury rating, approximately 10 d
[22] = 125 g ai/ha, visual rating about 10 d after treatment
[23] = 31 g ai/ha, 0 is no effect, 100 is complete control

## CN1C[C@H](c2cccc(C#N)c2)[C@@H](C(=O)Nc2cccc(F)c2F)C1=O [Compound 1286]
[1]; 31 g ai/ha, Preemergence
  pest or weed control at 31 g/ha: 20%
[1]; [21]
  pest or weed control at 125 g/ha: 60%
[2]; 31 g ai/ha, Preemergence
  pest or weed control at 31 g/ha: 100%
[2]; [21]
  pest or weed control at 125 g/ha: 100%
[3]; 31 g ai/ha, Preemergence
  pest or weed control at 31 g/ha: 0%
[3]; [21]
  pest or weed control at 125 g/ha: 20%
[4]; 31 g ai/ha, Preemergence
  pest or weed control at 31 g/ha: 0%
[4]; [21]
  pest or weed control at 125 g/ha: 50%
[5]; 31 g ai/ha, Preemergence
  pest or weed control at 31 g/ha: 0%
[5]; [21]
  pest or weed control at 125 g/ha: 60%
[6]; 31 g ai/ha, Preemergence
  pest or weed control at 31 g/ha: 100%
[6]; [21]
  pest or weed control at 125 g/ha: 100%
[7]; [22]
  pest or weed control at 125 g/ha: 40%
[7]; [23]
  pest or weed control at 31 g/ha: 0%
[8]; [22]
  pest or weed control at 125 g/ha: 0%
[8]; [23]
  pest or weed control at 31 g/ha: 0%
[9]; [22]
  pest or weed control at 125 g/ha: 40%
[9]; [23]
  pest or weed control at 31 g/ha: 20%
[10]; [22]
  pest or weed control at 125 g/ha: 90%
[10]; [23]
  pest or weed control at 31 g/ha: 70%
[11]; [22]
  pest or weed control at 125 g/ha: 20%
[11]; [23]
  pest or weed control at 31 g/ha: 0%
[12]; [22]
  pest or weed control at 125 g/ha: 0%
[12]; [23]
  pest or weed control at 31 g/ha: 0%
[13]; [22]
  pest or weed control at 125 g/ha: 30%
[13]; [23]
  pest or weed control at 31 g/ha: 0%
[14]; [22]
  plant injury at 125 g/ha: 0%
[14]; [23]
  plant injury at 31 g/ha: 0%
[15]; [22]
  plant injury at 125 g/ha: 80%
[15]; [23]
  plant injury at 31 g/ha: 20%
[16]; 125 g ai/ha, visual rating about 10 d after treatment, read-out: Barnyardgrass plant response rating (0 to 100 scale, 0 no effect, 100 complete control)
  pest or weed control at 125 g/ha: 90%
[16]; 31 g ai/ha, 0 is no effect, 100 is complete control, read-out: Barnyardgrass plant response rating (0 to 100 scale)
  pest or weed control at 31 g/ha: 90%
[17]
  pest or weed control at 250 g/ha: 95%
[18]
  pest or weed control at 250 g/ha: 0%
[19]
  pest or weed control at 250 g/ha: 0%
[20]
  pest or weed control at 250 g/ha: 70%
